{
  "source": "PubChem BioAssay (NCI)",
  "experiment_in_all_cases": "inhibition of tumour cell growth, NCI panel, 384-well format",
  "key": {"NCI-H23 lung": {"system": "NCI-H23 lung"}, "NCI-H322M lung": {"system": "NCI-H322M lung"}, "NCI-H460 NSCLC": {"system": "NCI-H460 NSCLC"}, "NCI-H522 lung": {"system": "NCI-H522 lung"}, "NCI/ADR-RES ovarian": {"system": "NCI/ADR-RES ovarian"}, "OVCAR-3 ovarian": {"system": "OVCAR-3 ovarian"}, "OVCAR-4 ovarian": {"system": "OVCAR-4 ovarian"}, "OVCAR-5 ovarian": {"system": "OVCAR-5 ovarian"}, "OVCAR-8 ovarian": {"system": "OVCAR-8 ovarian"}, "PC-3 prostate": {"system": "PC-3 prostate"}, "RPMI-8226 leukemia": {"system": "RPMI-8226 leukemia"}, "RXF 393 renal": {"system": "RXF 393 renal"}, "SF-268 CNS": {"system": "SF-268 CNS"}, "SF-295 CNS": {"system": "SF-295 CNS"}, "SF-539 CNS": {"system": "SF-539 CNS"}, "SK-MEL-2 melanoma": {"system": "SK-MEL-2 melanoma"}, "SK-MEL-28 melanoma": {"system": "SK-MEL-28 melanoma"}, "SK-MEL-5 melanoma": {"system": "SK-MEL-5 melanoma"}, "SK-OV-3 ovarian": {"system": "SK-OV-3 ovarian"}, "SN12C renal": {"system": "SN12C renal"}, "SNB-19 CNS": {"system": "SNB-19 CNS"}, "SNB-75 CNS": {"system": "SNB-75 CNS"}, "SR leukemia": {"system": "SR leukemia"}, "SW-620 colon": {"system": "SW-620 colon"}, "T-47D breast": {"system": "T-47D breast"}, "TK-10 renal": {"system": "TK-10 renal"}, "U251 glioblastoma": {"system": "U251 glioblastoma"}, "UACC-257 melanoma": {"system": "UACC-257 melanoma"}, "UACC-62 melanoma": {"system": "UACC-62 melanoma"}, "UO-31 renal": {"system": "UO-31 renal"}},
  "note": "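Abbreviation: GI50, concentration required for 50% inhibition of growth. The concentration for full growth arrest is given as TGI.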",
  "data": [
    {"compound": "CC#C/C(=N\\OC[C@H]1COCCN1)c1ccc2ncnc(Nc3ccc(OCc4cccc(F)c4)c(Cl)c3)c2c1", "values": [
      {"measurement": "TGI", "setting": "NCI-H23 lung", "result": 3980, "unit": "nM"},
      {"measurement": "GI50", "setting": "NCI-H322M lung", "result": 102, "unit": "nM"},
      {"measurement": "TGI", "setting": "NCI-H322M lung", "result": 1230, "unit": "nM"},
      {"measurement": "GI50", "setting": "NCI-H460 NSCLC", "result": 1750, "unit": "nM"},
      {"measurement": "TGI", "setting": "NCI-H460 NSCLC", "result": 3180, "unit": "nM"},
      {"measurement": "GI50", "setting": "NCI-H522 lung", "result": 48.2, "unit": "nM"},
      {"measurement": "TGI", "setting": "NCI-H522 lung", "result": 1290, "unit": "nM"},
      {"measurement": "GI50", "setting": "NCI/ADR-RES ovarian", "result": 1490, "unit": "nM"},
      {"measurement": "TGI", "setting": "NCI/ADR-RES ovarian", "result": 4020, "unit": "nM"},
      {"measurement": "GI50", "setting": "OVCAR-3 ovarian", "result": 1190, "unit": "nM"},
      {"measurement": "TGI", "setting": "OVCAR-3 ovarian", "result": 2440, "unit": "nM"},
      {"measurement": "GI50", "setting": "OVCAR-4 ovarian", "result": 1280, "unit": "nM"},
      {"measurement": "TGI", "setting": "OVCAR-4 ovarian", "result": 2550, "unit": "nM"},
      {"measurement": "GI50", "setting": "OVCAR-5 ovarian", "result": 1800, "unit": "nM"},
      {"measurement": "TGI", "setting": "OVCAR-5 ovarian", "result": 3590, "unit": "nM"},
      {"measurement": "GI50", "setting": "OVCAR-8 ovarian", "result": 1370, "unit": "nM"},
      {"measurement": "TGI", "setting": "OVCAR-8 ovarian", "result": 2670, "unit": "nM"},
      {"measurement": "GI50", "setting": "PC-3 prostate", "result": 1780, "unit": "nM"},
      {"measurement": "TGI", "setting": "PC-3 prostate", "result": 3200, "unit": "nM"},
      {"measurement": "GI50", "setting": "RPMI-8226 leukemia", "result": 959, "unit": "nM"},
      {"measurement": "TGI", "setting": "RPMI-8226 leukemia", "result": 2420, "unit": "nM"},
      {"measurement": "GI50", "setting": "RXF 393 renal", "result": 864, "unit": "nM"},
      {"measurement": "TGI", "setting": "RXF 393 renal", "result": 2260, "unit": "nM"},
      {"measurement": "GI50", "setting": "SF-268 CNS", "result": 1620, "unit": "nM"},
      {"measurement": "TGI", "setting": "SF-268 CNS", "result": 3000, "unit": "nM"},
      {"measurement": "GI50", "setting": "SF-295 CNS", "result": 1820, "unit": "nM"},
      {"measurement": "TGI", "setting": "SF-295 CNS", "result": 3220, "unit": "nM"},
      {"measurement": "GI50", "setting": "SF-539 CNS", "result": 1590, "unit": "nM"},
      {"measurement": "TGI", "setting": "SF-539 CNS", "result": 2950, "unit": "nM"},
      {"measurement": "GI50", "setting": "SK-MEL-2 melanoma", "result": 1310, "unit": "nM"},
      {"measurement": "TGI", "setting": "SK-MEL-2 melanoma", "result": 2580, "unit": "nM"},
      {"measurement": "GI50", "setting": "SK-MEL-28 melanoma", "result": 1770, "unit": "nM"},
      {"measurement": "TGI", "setting": "SK-MEL-28 melanoma", "result": 3160, "unit": "nM"},
      {"measurement": "GI50", "setting": "SK-MEL-5 melanoma", "result": 1510, "unit": "nM"},
      {"measurement": "TGI", "setting": "SK-MEL-5 melanoma", "result": 2850, "unit": "nM"},
      {"measurement": "GI50", "setting": "SK-OV-3 ovarian", "result": 246, "unit": "nM"},
      {"measurement": "TGI", "setting": "SK-OV-3 ovarian", "result": 3420, "unit": "nM"},
      {"measurement": "GI50", "setting": "SN12C renal", "result": 1280, "unit": "nM"},
      {"measurement": "TGI", "setting": "SN12C renal", "result": 2550, "unit": "nM"},
      {"measurement": "GI50", "setting": "SNB-19 CNS", "result": 1670, "unit": "nM"},
      {"measurement": "TGI", "setting": "SNB-19 CNS", "result": 3040, "unit": "nM"},
      {"measurement": "GI50", "setting": "SNB-75 CNS", "result": 1870, "unit": "nM"},
      {"measurement": "TGI", "setting": "SNB-75 CNS", "result": 3270, "unit": "nM"},
      {"measurement": "GI50", "setting": "SR leukemia", "result": 393, "unit": "nM"},
      {"measurement": "TGI", "setting": "SR leukemia", "result": 1230, "unit": "nM"},
      {"measurement": "GI50", "setting": "SW-620 colon", "result": 1880, "unit": "nM"},
      {"measurement": "TGI", "setting": "SW-620 colon", "result": 3300, "unit": "nM"},
      {"measurement": "GI50", "setting": "T-47D breast", "result": 1020, "unit": "nM"},
      {"measurement": "TGI", "setting": "T-47D breast", "result": 2410, "unit": "nM"},
      {"measurement": "GI50", "setting": "TK-10 renal", "result": 404, "unit": "nM"},
      {"measurement": "TGI", "setting": "TK-10 renal", "result": 1880, "unit": "nM"},
      {"measurement": "GI50", "setting": "U251 glioblastoma", "result": 1880, "unit": "nM"},
      {"measurement": "TGI", "setting": "U251 glioblastoma", "result": 3310, "unit": "nM"},
      {"measurement": "GI50", "setting": "UACC-257 melanoma", "result": 1520, "unit": "nM"},
      {"measurement": "TGI", "setting": "UACC-257 melanoma", "result": 2850, "unit": "nM"},
      {"measurement": "GI50", "setting": "UACC-62 melanoma", "result": 1650, "unit": "nM"},
      {"measurement": "TGI", "setting": "UACC-62 melanoma", "result": 3020, "unit": "nM"},
      {"measurement": "GI50", "setting": "UO-31 renal", "result": 1520, "unit": "nM"},
      {"measurement": "TGI", "setting": "UO-31 renal", "result": 2860, "unit": "nM"}
    ]}
  ]
}
